From patent US20260007679A1, “METHODS OF TREATING CANCER USING 3-(4-((4-(MORPHOLINOMETHYL)BENZYL)OXY)-1-OXOISOINDOLIN-2-YL)PIPERIDINE-2,6-DIONE” (Celgene Corporation, priority 2012, published 2026)
Like-named read-outs stand apart in the source and are kept apart here.

Legend:
[1] = tested on: Human umbilical vascular endothelial cells; test: Growth factor-induced HUVEC invasion assay; assay type: cell-based; conditions: for IC50: Homo sapiens; for VEGF-, bFGF-, and HGF-induced HUVEC invasion: dose-dependent
Experimental: Human Umbilical Vascular Endothelial Cell Invasion Assay: In the HUVEC invasion assay, the concentration of human fibronectin is optimized to provide a suitable protein structure for adherent cells to attach to the membrane and allow free migration in response to an angiogenic stimulus (e.g. VEGF, bFGF, or HGF) in the lower chamber of the insert plate. HUVECs were starved in 0.1% BSA EBM2 medium for 6 hours after washing with the same medium 3 times. The cells were then trypsinized and centrifuged to remove the remaining trypsin. Then ˜0.5 to 1×10^6 cells in 125 μL/well and 125 μL of 8× serially diluted compounds (10, 1, 0.1, 0.01, 0.001 μM) were added to the upper chamber of the BD Falcon 24-well and 96-well insert plates in duplicate and incubated for ˜1 to 2 hours. (The plates contain a fluorescence blocking, microporous [3.0 μm pore size] PET membrane that has been evenly coated with human fibronectin.) Seven hundred fifty microliters of a 1.33× stock solution of VEGF (final concentration of 25 ng/mL), bFGF (final concentration of 10 ng/mL), or HGF (final concentration of 25 ng/mL) were then added to the lower chamber. The cells were incubated for 22±1 hours at 37° C. The migrated cells were stained with calcein AM at 4 μg/mL in HBSS containing 2% FBS, using 500 µL/well in 24-well plates and 200 µL/well in 96-well plates. The plates were incubated at 37° C. for 90 minutes and read in a fluorescence plate reader.
The percentage inhibition of cell proliferation, tube formation, migration, and invasion was calculated by subtracting the result for unstimulated DMSO control from test sample results, averaging all replicates, and normalizing to the growth factor-stimulated DMSO control (0% inhibition). The IC50 values were calculated by using GraphPad Prism 5.0.

[2] = tested on: U87 Glioblastoma xenograft; test: U87 Glioblastoma xenograft model; assay type: in vivo, mouse; conditions: for U87 tumor growth: 30 mg/kg qd
Experimental: Compounds I, I-R, and I-S were tested in U87 Glioblastoma xenograft model, and the results are depicted in FIG. 25.

[3] = tested on: megakaryocyte progenitor cells (normal human bone marrows); test: Megakaryocyte colony formation assay; assay type: cell-based; conditions: for IC50: Homo sapiens, 14-16 days
Experimental: Colony formation assay was conducted with normal human bone marrows treated in semi-solid collagen matrix with compound/IL-3/IL-6/Tpo for 14-16 days, and the results are summarized in Table 7.

[4] = tested on: anti-CD3-stimulated human T cells; test: Cytokine production by T cells (multi-plex CBA); assay type: cell-based; conditions: for IL-10 production at high concentration: >10 nM; for concentrations that enhanced IL-2, IL-3, IL-5, IL-10, IL-13, GM-CSF, IFN-γ, TNF-α and RANTES: for compound I RANTES at 10 nM
Experimental: T cells were isolated from buffy coat by negative selection using the RosetteSep® T Cell Enrichment Cocktail. The manufacturer's procedures were followed accordingly. All 96-well plates were pre-coated with […] anti-human CD3 antibody in 100 μl 1×PBS for 4 hours at 37° C. The plates were washed three times with RPMI-1640 Complete Media prior to the T cell assay. T cells were then plated in CD3 pre-coated plates at a density of 2.5×10^5 cells/well in 180 μl RPMI-1640 Complete Media. The cells were treated with 20 μl 10× titrated compounds at 10, 1, 0.1, 0.01, 0.001, 0.0001 and 0.00001 μM. Final DMSO concentrations were 0.25%. The plates were incubated for 48 hours at 37° C., 5% CO2. After 48 hours, the supernatants were harvested and tested by a multi-plex cytometric bead array (CBA) assay for the following cytokines/chemokines: IL-2, IL-3, IL-5, IL-10, IL-13, IL-15, IL-17a, GM-CSF, G-SCF, IFN-γ, TNF-α and RANTES. The CBA plates were analyzed on the Luminex IS100 instrument. Data from each donor was graphed using GraphPad Prism 5.0 software and expressed as mean pg/mL±SEM and % of DMSO control±SEM.

[5] = tested on: NCI-H929 Multiple Myeloma xenograft; test: NCI-H929 Multiple Myeloma xenograft model; assay type: in vivo, mouse; conditions: for H929 tumor growth: mouse, in vivo; for tumor growth inhibition: day 19
Experimental: Compounds I, I-R, and I-S were tested in NCI-H929 Multiple Myeloma xenograft model, and the results are depicted in FIG. 24.

rat aorta = test: Rat aorta assay; assay type: cell-based
Experimental: Compounds I, I-R, and I-S were tested in various angiogenesis inhibition assays.

NK cells = test: NK IgG-induced IFN-γ assay; assay type: cell-based, human; conditions: immobilized IgG and IL-2 stimulation; 7 donors
Text: NK cells from healthy donors were isolated from buffy coat blood by negative selection using the RosetteSep NK cell enrichment cocktail (Stem Cell Technologies, Vancouver, BC) prior to Ficoll-Hypaque (Fisher Scientific Co LLC, PA) density gradient centrifugation following the manufacturers' instructions. CD56+NK cells were isolated to ˜85% purity, as determined by flow cytometry (BD Biosciences, CA).
NK IgG-induced Interferon-Gamma (IFN-γ) Assay: Ninety-six-well flat-bottom plates were coated with 100 µg/mL of human IgG (Sigma) overnight at 4° C. The next day, unbound IgG was washed away with cold 1×PBS. NK cells were then plated in the IgG-coated 96-well plates at 2×10^5 cells per well in 180 μL RPMI-1640 Media and 10 ng/mL of rhIL-2 (R & D Systems, MN) was added. Test compounds were added in a volume of 20 μL DMSO. Final concentrations of test compounds were […]. Final DMSO concentrations were […]. After 48 hours, the supernatants were harvested and analyzed by ELISA for IFN-γ production.
Data used to determine the test compounds to enhance NK cell IFN-γ production in response to immobilized IgG and rhIL-2 stimulation was analyzed for each donor using GraphPad Prism v5.0 software.

[6] = Endothelial cell, read-out: HGF-induced invasion IC50 Values
[7] = Endothelial cell, read-out: VEGF-induced invasion IC50 Values
[8] = Endothelial cell, read-out: bFGF-induced invasion IC50 Values
[9] = HUVEC, read-out: IC50, HUVEC invasion (growth factor not given)
[10] = HUVEC, read-out: IC50 for inhibition of VEGF induced HUVEC invasion
[11] = Bone Marrow ID 0090128, read-out: Immature Colony IC50
[12] = Bone Marrow ID 0090128, read-out: Intermediate Colony IC50
[13] = Bone Marrow ID 0090616, read-out: Immature Colony IC50
[14] = Bone Marrow ID 0090616, read-out: Intermediate Colony IC50
[15] = Bone Marrow ID 0090714, read-out: Immature Colony IC50
[16] = Bone Marrow ID 0090714, read-out: Intermediate Colony IC50

| SMILES | IC50 [1, 6] [nM] | IC50 [1, 7] [nM] | IC50 [1, 8] [nM] | IC50 [1, 9] [nM] | IC50 [1, 10] [nM] | VEGF-, bFGF-, and HGF-induced HUVEC invasion [1] | U87 tumor growth [2] | tumor growth inhibition ([2]; 30 mg/kg, day 48) | IC50 [3, 11] [nM] | IC50 [3, 12] [nM] | IC50 [3, 13] [nM] | IC50 [3, 14] [nM] | IC50 [3, 15] [nM] | IC50 [3, 16] [nM] | concentration at which enhancement of IL-5 production peaked [4] [nM] | GM-CSF production, times those of control cells ([4]; 10 nM) [times] | IL-2 production, times those of control cells ([4]; 10 nM) [times] | IL-13 production, times those of control cells ([4]; 10 nM) [times] | IL-10 production at high concentration [4] | anti-angiogenic activity in rat aorta assay (rat aorta) | other results |
| --- | --- | --- | --- | --- | --- | --- | --- | --- | --- | --- | --- | --- | --- | --- | --- | --- | --- | --- | --- | --- | --- |
| O=C1CCC(N2Cc3c(OCc4ccc(CN5CCOCC5)cc4)cccc3C2=O)C(=O)N1 (racemic) [Compound I, 3-(4-((4-(morpholinomethyl)benzyl)oxy)-1-oxoisoindolin-2-yl)piperidine-2,6-dione] | 590 | 0.14 | 0.42 | 0.4 | < 0.3 | significantly inhibited | significantly inhibited U87 tumor growth | > 80% | 100 to 1000 | > 10000 | 60 | > 10000 | 50 | > 10000 | 1 | 6 | 22 | 6.5 | inhibited | modest anti-angiogenic activity | GM-CSF production, times those of control cells ([4]; 1 nM): 3 times; IL-2 production, times those of control cells ([4]; 1 nM): 7 times; IL-5 production, times over that of control cells ([4]; 1 nM): 6 times; IL-13 production, times those of control cells ([4]; 1 nM): 5 times; IL-5 production enhancement ([4]; 10 nM): ≤ 2 fold; H929 tumor growth [5]: significantly inhibited H929 tumor growth in a dose-dependent manner |
| O=C1CC[C@@H](N2Cc3c(OCc4ccc(CN5CCOCC5)cc4)cccc3C2=O)C(=O)N1 [Compound I-R, (R)-3-(4-((4-(morpholinomethyl)benzyl)oxy)-1-oxoisoindolin-2-yl)piperidine-2,6-dione] | 450 | < 0.1 | 13 | 13 | < 0.3 | significantly inhibited | – | – | 10000 | > 10000 | 400 | > 10000 | 400 | > 10000 | – | 6 | 15 | 7 | inhibited | modest anti-angiogenic activity | IL-10 production enhancement ([4]; 0.01 to 1 nM): ~6 fold; IL-5 production, times that of control cells ([4]; 1 to 100 nM): up to 2.5 times; concentrations that enhanced IL-2, IL-3, IL-5, IL-10, IL-13, GM-CSF, IFN-γ, TNF-α and RANTES [4]: ≥ 1 nM; NK cell IFN-γ production (NK cells): slightly more active than compound I |
| O=C1CC[C@H](N2Cc3c(OCc4ccc(CN5CCOCC5)cc4)cccc3C2=O)C(=O)N1 [Compound I-S, (S)-3-(4-((4-(morpholinomethyl)benzyl)oxy)-1-oxoisoindolin-2-yl)piperidine-2,6-dione] | 19 | < 0.1 | < 0.1 | < 0.1 | < 0.3 | significantly inhibited | significantly inhibited U87 tumor growth | about 60% | 80 | 9200 | 40 | 650 | 50 | 860 | 1 | 5 | 18 | 7 | inhibited | modest anti-angiogenic activity | tumor growth inhibition ([2]; 15 mg/kg, day 43, another study): about 47%; effect on megakaryocyte progenitor cells [3]: inhibited megakaryocyte progenitor cells; IL-5 production, times over that of control cells ([4]; 1 nM): 6 times; concentrations that enhanced IL-2, IL-3, IL-5, IL-10, IL-13, GM-CSF, IFN-γ, TNF-α and RANTES [4]: ≥ 1 nM; tumor growth inhibition ([5]; 0.3 mg/kg): 34%; tumor growth inhibition ([5]; 3 mg/kg): 67%; tumor growth inhibition ([5]; 30 mg/kg): 87%; H929 tumor growth [5]: significantly inhibited H929 tumor growth in a dose-dependent manner; NK cell IFN-γ production (NK cells): slightly more active than compound I |
